Results taken from patent US20110142911A1, “HIV epitopes and pharmaceutical composition containing same” (Centre National de la Recherche Scientifique (CNRS), priority 2005, published 2011).

Tested on: CD4+ T lymphocytes from Class II H-2 invalidated HLA-DR1 transgenic mice
Assay: Proliferation test ([3H]-thymidine) of T cells from p24-immunized HLA-DR1 transgenic mice re-stimulated in vitro with peptide-loaded LPS blasts
Assay type: cell-based, mouse
From the text: FIG. 1: The stimulation index of CD4+ T lymphocytes stemming from Class II H-2, invalidating HLA-DR1 transgenic mice (IAβ^bo) and immunized by means of the p24 protein of the HIV, is illustrated in this figure. The CD4+ T cells were re-stimulated in vitro by blasts activated by LPS and loaded with peptide Gag291-310, Gag301-320, Gag321-340, Gag331-350, and RT171-190 as control peptide. The stimulation index represents the ratio of the radioactivity measured after incorporation of [^3H]-thymidine by the T lymphocytes in the presence of specific peptides over the radioactivity measured by incorporation of [^3H]-thymidine by the T lymphocytes in the presence of the control peptide.
HLA-DR1 transgenic and Class II (IAβ^bo) H-2 invalidated mice, the line of which was established beforehand by Pajot et al., (Int. Immunol., 2004, 16:1275-1282) were used during the various experiments.
The mice, anesthetized with 75 mg/kg of pentobarbital (Ceva, Santé Animale, Libourne, France) received 4 μg of recombinant proteins associated with an alum adjuvant.
Twelve days after the last immunization, splenocytes separated from red corpuscles by purification on Ficoll (5·10^6 cells/25 cm^2 of culture flask (TECHNO PLASTIC PRODUCT, TPP, Trasadingen, Switzerland)) were co-cultivated in the presence of blast cells activated with LPS (5·10^6 cells/culture flask), loaded with peptides (20 μg/ml) and irradiated by γ rays (180 Gy), in an RPMI medium complemented with 10% FCS (Fetal Calf Serum), 10 mM HEPES, 1 mM sodium pyruvate, […] mercapto-2-ethanol, 100 IU/ml of penicillin and 100 μg of streptomycin, as described by Loirat at al., (Journal of Immunology, 2000, 165:4748-4755).
The blast cells were loaded with one of the test peptides Gag301-320, Gag321-340, or Gag331-350, or with a negative control peptide derived from an antigen of the HIV, the RT171-190 peptide, or with a positive control peptide derived from the p24 antigen of the HIV, the peptide Gag291-310, respectively.
After seven days of culture, proliferation tests were carried out after distributing 5·10^5 cells/wells, in 96-well plates with flat bottoms, from cells (obtained from TTP), in the presence of blast cells stimulated by LPS, irradiated and loaded with peptide (in an amount of 2·10^5 cells/well). The proliferation tests were conducted over a period of 72 hours, in a full RPMI medium complemented with 3% SVF.
The cells were incubated for the last 16 hours, with 1 μCi of [^3H]-thymidine per well before being recovered on filters with a TOMTEC collector (Perkin Elmer Applied Biosystem). The incorporated radioactivity was measured with a micro-β counter (Perkin Elmer Applied Biosystem)
The results are expressed as a stimulation index (IS) equal to the ratio of the cpm measured after incubation with the tested peptides over the cpm measured after incubation with the control peptide.
In order to evaluate the immunogenicity of HLA-DR1 restrictive epitopes, Gag301-320, Gag321-340, and Gag331-350, the Class II H-2 invalidated and HLA-DR1 transgenic mice were immunized with the p24 protein of the HIV. Subsequently, the T cells from the spleen were re-stimulated in vitro with the peptides to be tested and a positive control peptide Gag291-310, or a negative control peptide RT171-190.

Gag331-350: novel 20 amino acid HLA-DR1 restricted epitope peptide of the HIV-1 Gag p24 protein (KTILKALGPAATLEEMMTAC; Gag polyprotein; UniProt P04591 331-350, looked up, fragment)
number of mice responding to the peptide (Class II H-2 invalidated HLA-DR1 transgenic mice immunized with p24 (Table 2)): 3 mice out of 11 | proliferative cell response (FIG. 1) (mice immunized with p24 protein of HIV, T cells from spleen re-stimulated in vitro with peptide): capable of developing a proliferative cell response
